“Also recorded” adds a separate entry of the source.
Experiments:
[1] = Electronic absorption, red absorption maximum; format: physicochemical; details: maximum red absorption peak, Table 3
Procedure: M.p.s were measured on a Thomas/Bristoline microscopic hot stage apparatus and were uncorrected. Silica gel 60 (70-230 and 230-400 mesh, Merck) or neutral alumina (Merck; usually Brockmann Grade III, i. e., deactivated with 6% water) were used for column chromatography. Preparative thin layer chromatography was carried out on 20×20 cm glass plates coated with Merck G 254 silica gel (1 mm thick). Analytical thin layer chromatography (TLC) was performed using merck 60 F254 silica gel (precoated sheets, 0.2 mm thick). Reactions were monitored by TLC and spectrophotometry and were carried out under nitrogen and in the dark. ^1 HNMR spectra were obtained in deuteriochloroform solution at 300 MHz using a General Electric QE300 spectrometer; chemical shifts are expressed in ppm relative to chloroform (7.258 ppm). Elemental analyses were performed at the Midwest Microlab, Ltd., Indiana, USA. Unless stated otherwise, electronic absorption spectra were measured in dichloromethane solution using a Hewlett-Packard 8450A spectrophotometer. Mass spectra were obtained at the Mass Spectrometry Facility, University of California, San Francisco and at the Department of Biophysics, Roswell Park Cancer Institute, Buffalo.

SMT-F tumor [2] = experiment: In vivo antitumor (photodynamic) activity, SMT-F tumors in DBA/2 mice; design: species or system DBA/2 Ha-DD mouse
Procedure: Tumor Response and Foot Response Experiments: For tumor response experiments (see Table 3), a 1mm^3 piece of SMT-F tumor from a donor DBA/2 Ha-DD mouse was implanted subcutaneously with a trocar into the axilla of a 5-7 week old female DBA/2 Ha-DD mouse. When the tumor had grown to about 4mm diameter, mice were injected intravenously (i.v.) with photosensitizers at various doses. At various time after injection, mice were restrained in Plexiglas® holders and each tumor was illuminated with 135 J/cm^2 light from a dye laser 171 (spectra physics). The light dose rate was 75 mW/cm^2 as measured with a PTR Optics […]. The percentage of short term control (non-palpable tumors) was recorded daily. For our study 6 mice/group were used.
In vivo Biological Activity: The in vivo photosensitizing ability of all the sensitizers was compared with that of commercial BPD in DBA/2 mice bearing subcutaneously implanted SMT-F tumors, a method previously described by Dougherty et al. All photosensitizers, including commercial BPD (mixture of 21 and 22) were first dissolved in a minimum quantity of Tween 80 and then diluted with 0.9% saline, to a final concentration of 1% Tween 80.
It can be seen from Table 3 that commercial BPD was quite effective at a dose of 5.0 mg/kg, 3 h post i.v. injection (4 out of six mice were tumor free at day 30). […] However, replacement of the vinyl with a 1-hexyloxyethyl group induced a remarkable difference in photosensitizing activity.

hind foot = experiment: Foot-response experiments (skin phototoxicity); format: in vivo, DBA/2 HaDD mice
Procedure: Foot-response experiments were carried out on 5-7 week old female DBA/2 HaDD mice. Sensitizers were injected i.v. at the following doses: Photofrin® in normal saline, BPD (industrial preparation) in 1% Tween 80; n-hexyl ether derivative 40 in 1% Tween 80. After 1 or 5 days the mice were restrained without anesthesia in aluminum holders and one hind foot of each mouse was illuminated with light from a dye laser 171 (Spectra Physics). Illumination conditions (i.e., light dose, dose rate and wavelength) were as follows: Photofrin®, 5 mg/kg; BPD 5.0 mg/k (3.0 h), n-hexyl ether derivative 40 5.0 mg/kg (24 h) and 1.0 mg/kg (3 h). Light dose was measured with a Coherent 210 power meter and wavelength was measured with a PTR Optics monochromator. Sensitizer does for the foot response experiments corresponded to the lowest dose required to give maximum tumor control measured 7 days after treatment (see Table 3). Foot response was graded daily according to the scale in the legend to FIG. 13. Animals were euthanized immediately after peak foot scores were obtained.

SMT-F tumor [3] = experiment: In vivo antitumor (photodynamic) activity, SMT-F tumors in DBA/2 mice; design: species or system DBA/2 Ha-DD mouse; remark: listed apart in the source

SMILES: CCCCCCOC(C)C1=C(C)c2cc3[nH]c(cc4nc(cc5[nH]c(cc1n2)c(C)c5CCC(=O)OC)C(CCC(=O)OC)=C4C)C1(C)C3=CC=C(C(=O)OC)C1C(=O)OC (mixture of isomers) [Compound 40, 8-(1-Hexyloxyethyl)benzoporphyrin Derivative]
- absorption maximum wavelength [1]: 676 nm
- Tumor response (nonpalpable tumor), 1-2 d (SMT-F tumor [2]; 1.0 mg/kg i.v., light 3 h after injection, day 1-2): 6/6
- Tumor response (nonpalpable tumor), 7 d (SMT-F tumor [2]; 1.0 mg/kg i.v., light 3 h after injection, day 7): 3/6
- Tumor response (nonpalpable tumor), 30 d (SMT-F tumor [2]; 1.0 mg/kg i.v., light 3 h after injection, day 30): 3/6
- antitumor / photosensitizing activity (SMT-F tumor [2]; 1.0 mg/kg, light 3 h post i.v. injection where stated): active
- in vivo activity versus vinyl or ring B isomer (SMT-F tumor [2]; 1.0 mg/kg, trans isomers compared): more active than the ring "B" modified isomer 45
- in vivo photosensitizing efficacy / antitumor activity compared with BPD (SMT-F tumor [2]; mice, compared with BPD (mixture of 21 and 22)): significantly more active than the industrially prepared benzoporphyrin derivative; also recorded: better photosensitizing efficacy than benzoporphyrin derivative monocarboxylic acid; also recorded: better anti-tumor activity than BPD-MA
- skin phototoxicity compared with Photofrin and BPD (hind foot; 1.0 mg/kg, 3 h post injection): reduced skin phototoxicity
- skin phototoxicity compared with Photofrin and BPD (hind foot; 5.0 mg/kg, 24 h post injection): reduced skin phototoxicity
- skin phototoxicity (hind foot; dose not given): reduced residual skin phototoxicity compared with Photofrin; also recorded: reduced skin phototoxicity compared with BPD-MA and Photofrin
- Tumor response (nonpalpable tumor), 1-2 d (SMT-F tumor [3]; 5.0 mg/kg i.v., light 24 h after injection, day 1-2): 6/6
- Tumor response (nonpalpable tumor), 7 d (SMT-F tumor [3]; 5.0 mg/kg i.v., light 24 h after injection, day 7): 6/6
- Tumor response (nonpalpable tumor), 30 d (SMT-F tumor [3]; 5.0 mg/kg i.v., light 24 h after injection, day 30): 5/6
- tumorcidal / photosensitizing activity (SMT-F tumor [3]; 5.0 mg/kg, light 24 h post i.v. injection): excellent tumorcidal activity

Reference: US5498710A, “Alkyl ether analogues of benzoporphyrin derivatives” (Health Research, Inc., priority 1994, dated 1996)
